From patent US20070014734A1, “Glucuronidated nebivolol metabolites” (priority 2005, published 2007)

Legend:
[1] = test system: human endothelial cells; experiment: Acute ONOO− (peroxynitrite) release from human endothelial cells of white and black donors; assay type: cell-based; settings: acute treatment; for Acute ONOO− Release, Black Donors ONOO−: endothelial cells from black donors; for Acute ONOO− Release, White Donors ONOO−: endothelial cells from white donors; for ONOO− (peroxynitrite) release (in words): human endothelial cells
From the text: The donors were between 20-25 years of age, with a mean body mass index (in kg/m^2), of 22.6±1.4 for white donors and 23.1±1.7 for black donors. The identification of race was defined by self report. For FIGS. 1-3, the HUvEC samples were obtained from American Type Culture Collection (Manassas, Va.). […] However, the amount of OONO^− produced for any of the metabolites was less than that observed for nebivolol. The ratio of NO to OONO^− produced by nebivolol and its glucuronide metabolites was similar following acute administration (Table 4).

[2] = test system: Human Umbilical Vein Endothelial Cells (HUVEC); experiment: Acute NO release from HUVEC of white and black American donors, electrochemical nanosensors; assay type: cell-based; settings: for Acute NO Release, Black Donors NO: HUVEC from black American donors; for Acute NO Release, Black Donors NO / Acute NO Release, White Donors NO: acute treatment 1.0 μM, mean±S.D. (n=5); for Acute NO Release, White Donors NO: HUVEC from white donors; for Acute [NO]/[ONOO−] Release Ratio, Black Donors / Acute [NO]/[ONOO−] Release Ratio, White Donors: ratio of NO (Table 1) to ONOO− (Table 3); for NO release after acute treatment (in words): endothelial cells from both white and black American donors, 1.0 μM
Description: The acute effects of nebivolol racemate, its separate enantiomers, and four stereoselective glucuronide metabolites on endothelial-dependent NO release were tested in Human Umbilical Vein Endothelial Cells (HUVEC). The tissue is isolated from normotensive white and black American donors with matched risk factor profiles. Production of NO is recorded using electrochemical nanosensors following acute treatment with the drugs at 1.0 μM (n=5).
The donors were between 20-25 years of age, with a mean body mass index (in kg/m^2), of 22.6±1.4 for white donors and 23.1±1.7 for black donors. The identification of race was defined by self report. For FIGS. 1-3, the HUvEC samples were obtained from American Type Culture Collection (Manassas, Va.).
The baseline is stabilized after about 20 seconds.
Nanosensors are prepared from carbon fibers.

OC(CNCC(O)C1CCc2cc(F)ccc2O1)C1CCc2cc(F)ccc2O1 (racemic) [nebivolol, α,α′-[iminobismethylene]bis[6-fluoro-3,4-dihydro-2H-1-benzopyran-2-methanol]]
Acute ONOO− Release, Black Donors ONOO− [1]: 242 ± 17 nM
Acute ONOO− Release, White Donors ONOO− [1]: 193 ± 16 nM
Acute NO Release, Black Donors NO [2]: 148 ± 10 nM
Acute NO Release, White Donors NO [2]: 218 ± 11 nM
Acute [NO]/[ONOO−] Release Ratio, Black Donors [2]: 0.612
NO release after acute treatment (in words) [2]: marked improvement
Acute [NO]/[ONOO−] Release Ratio, White Donors [2]: 1.130

O=C(O)C1OC(OC(CNCC(O)C2CCc3cc(F)ccc3O2)C2CCc3cc(F)ccc3O2)C(O)C(O)C1O (single isomer, unassigned) [G-UDb, l-Nebivolol-11-O-β-D-glucuronide]
Acute ONOO− Release, Black Donors ONOO− [1]: 225 ± 16 nM
Acute ONOO− Release, White Donors ONOO− [1]: 180 ± 13 nM
ONOO− (peroxynitrite) release (in words) [1]: greatest activity
Acute NO Release, Black Donors NO [2]: 139 ± 12 nM
Acute NO Release, White Donors NO [2]: 206 ± 12 nM
Acute [NO]/[ONOO−] Release Ratio, Black Donors [2]: 0.618
Acute [NO]/[ONOO−] Release Ratio, White Donors [2]: 1.144

O=C(O)C1OC(OC(CNCC(O)C2CCc3cc(F)ccc3O2)C2CCc3cc(F)ccc3O2)C(O)C(O)C1O (single isomer, unassigned) [G-UDd, l-Nebivolol-11′-O-β-D-glucuronide]
Acute ONOO− Release, Black Donors ONOO− [1]: 193 ± 17 nM
Acute ONOO− Release, White Donors ONOO− [1]: 135 ± 13 nM
Acute NO Release, Black Donors NO [2]: 117 ± 8 nM
Acute NO Release, White Donors NO [2]: 161 ± 11 nM
Acute [NO]/[ONOO−] Release Ratio, Black Donors [2]: 0.606
Acute [NO]/[ONOO−] Release Ratio, White Donors [2]: 1.193

O=C(O)C1OC(OC(CNCC(O)C2CCc3cc(F)ccc3O2)C2CCc3cc(F)ccc3O2)C(O)C(O)C1O [G-UDa, d-Nebivolol-11-O-β-D-glucuronide]
Acute ONOO− Release, Black Donors ONOO− [1]: 238 ± 22 nM
Acute ONOO− Release, White Donors ONOO− [1]: 180 ± 16 nM
ONOO− (peroxynitrite) release (in words) [1]: greatest activity
Acute NO Release, Black Donors NO [2]: 144 ± 10 nM
Acute NO Release, White Donors NO [2]: 202 ± 12 nM
Acute [NO]/[ONOO−] Release Ratio, Black Donors [2]: 0.605
Acute [NO]/[ONOO−] Release Ratio, White Donors [2]: 1.122

O=C(O)C1OC(OC(CNCC(O)C2CCc3cc(F)ccc3O2)C2CCc3cc(F)ccc3O2)C(O)C(O)C1O [G-UDc, d-Nebivolol-11′-O-β-D-glucuronide]
Acute ONOO− Release, Black Donors ONOO− [1]: 204 ± 13 nM
Acute ONOO− Release, White Donors ONOO− [1]: 166 ± 13 nM
Acute NO Release, Black Donors NO [2]: 129 ± 10 nM
Acute NO Release, White Donors NO [2]: 188 ± 12 nM
Acute [NO]/[ONOO−] Release Ratio, Black Donors [2]: 0.632
Acute [NO]/[ONOO−] Release Ratio, White Donors [2]: 1.133

O[C@H](CNC[C@@H](O)[C@H]1CCc2cc(F)ccc2O1)[C@@H]1CCc2cc(F)ccc2O1 [d-nebivolol, reference compound]
Acute ONOO− Release, Black Donors ONOO− [1]: 116 ± 6 nM
Acute ONOO− Release, White Donors ONOO− [1]: 87 ± 6 nM
Acute NO Release, Black Donors NO [2]: 87 ± 6 nM
Acute NO Release, White Donors NO [2]: 127 ± 17 nM
Acute [NO]/[ONOO−] Release Ratio, Black Donors [2]: 0.750
NO release after acute treatment (in words) [2]: marked improvement
Acute [NO]/[ONOO−] Release Ratio, White Donors [2]: 1.460

O[C@@H](CNC[C@H](O)[C@H]1CCc2cc(F)ccc2O1)[C@@H]1CCc2cc(F)ccc2O1 [l-nebivolol, reference compound]
Acute ONOO− Release, Black Donors ONOO− [1]: 267 ± 13 nM
Acute ONOO− Release, White Donors ONOO− [1]: 223 ± 17 nM
Acute NO Release, Black Donors NO [2]: 192 ± 9 nM
Acute NO Release, White Donors NO [2]: 268 ± 12 nM
Acute [NO]/[ONOO−] Release Ratio, Black Donors [2]: 0.719
NO release after acute treatment (in words) [2]: marked improvement
Acute [NO]/[ONOO−] Release Ratio, White Donors [2]: 1.202
